Earlier results, collected in PMC8875809, “Comparative venomic profiles of three spiders of the genus Phoneutria” (The Journal of Venomous Animals and Toxins Including …, 2022).
Entries after “also recorded” stand apart in the source; their conditions may differ.

Tests used:
[1] = system: sodium channels; conditions: ref [78]
From the text: PnTx2-6 (MW 5288 Da) contains 48 amino acids, of which 10 are cysteine residues. […] Due to such effects on penile erection, PnTx2-6 has shown good perspectives for clinical application on erectile dysfunction treatment. […] Although we have not assayed Tx2-6 isoforms from P. eickstedtae (Pe-V) and P. pertyi (Pp- V), we believe that them has similar effects on sodium channels like PnTx2-6 isoform and similar results would be expected, because these toxins are homologous. The species P. eickstedtae and P. pertyi are rarer spiders. In addition, since Tx1 is the most abundant toxin, only this molecule was used for electrophysiology assays. We believe that our data, as they are, already bring the news to arouse ...

[2] = system: nitric oxide (NO)/cyclic GMP pathway; conditions: ref [24],[35],[36]
From the text: (§1) PnTx2-6 (MW 5288 Da) contains 48 amino acids, of which 10 are cysteine residues. […] Due to such effects on penile erection, PnTx2-6 has shown good perspectives for clinical application on erectile dysfunction treatment. PnTx2-6 modulates the nitric oxide (NO)/cyclic GMP pathwa ...

[3] = system: penile erection
From the text: as §1, with “PhTx2 toxins inhibit sodium channel inactivation. These toxins are the main responsible for the strongest neurotoxic effects of venom. […] These toxins have been explored as models for the development of a potential drug for the treatment of erectile dysfunction. || PnTx2-6 (MW” for “PnTx2-6 (MW”

Which results are given for “PnTx2-6: contains 48 amino acids, of which 10 are cysteine residues; P. nigriventer toxin (P29425) (ATCAGQDQPCKETCDCCGERGECVCGGPCICRQGYFWIAWYKLANCKK; UniProt P29425 35-82, looked up)”?
effect on sodium channel inactivation [1]: modifies the kinetics of sodium channel inactivation; also recorded: decreases sodium channel inactivation; voltage dependence of activation / sodium influx [1]: shifting the voltage dependence of activation towards more hyperpolarized potentials, thus increasing sodium influx; NO release in corpus cavernosum tissue [2]: increased release of NO in the corpus cavernosum tissue; priapism ([3]; ref [21],[24]): found to induce priapism; penile erection in envenomation ([3]; ref [29]): responsible for the penile erection
